Consider 23 compounds from ChEMBL document CHEMBL1909046, “DrugMatrix in vitro pharmacology data”.

One assay deals with Nitric oxide synthase 1 (Rattus norvegicus, UniProt P29476). Type of assay: tissue-based, Cerebellum.
Assay [1] has as its target T1, Cysteinyl leukotriene receptor 1 (Homo sapiens, UniProt Q9Y271). Further: in other assays of this panel Not Active means under 50% inhibition at 10 µM.
T1 sequence (Q9Y271 whole entry): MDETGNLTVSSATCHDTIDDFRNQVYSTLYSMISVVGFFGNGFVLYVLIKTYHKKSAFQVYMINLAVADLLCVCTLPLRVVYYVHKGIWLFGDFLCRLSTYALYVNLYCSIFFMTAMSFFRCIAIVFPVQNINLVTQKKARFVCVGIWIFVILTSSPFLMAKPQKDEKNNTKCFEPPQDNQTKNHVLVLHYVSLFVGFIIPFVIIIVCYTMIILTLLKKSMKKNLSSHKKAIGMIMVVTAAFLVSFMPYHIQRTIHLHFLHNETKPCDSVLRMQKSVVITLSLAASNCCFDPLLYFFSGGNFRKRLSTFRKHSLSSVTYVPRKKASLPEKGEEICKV
Type of assay: cell membranes, Membrane. To be noted: cho-k1.

Assay [2] can be described thus: DRUGMATRIX: Leukotriene, BLT (LTB4) radioligand binding (ligand: [3H]LTB4). Type of assay: cell membranes, Membrane. The conditions noted are these: u-937; Not Active = under 50% inhibition at 10 µM.
Assay [3] is described as follows: DRUGMATRIX: Glutamate, NMDA, Phencyclidine radioligand binding (ligand: [3H] TCP). Type of assay: cell membranes, Rattus norvegicus, Wistar, Cerebral cortex, Membrane. To be noted: Not Active = under 50% inhibition at 10 µM.
In assay [4] the target is Protein phosphatase 3 catalytic subunit alpha (Homo sapiens, UniProt Q08209). Details: species or system Escherichia coli.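 Further: inhibition of calcineurin (PP2B) enzyme activity, measured with DiFMUP as the substrate; in other assays of this panel Not Active means under 50% inhibition at 10 µM.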
Assay [5] has as its target Delta-type opioid receptor (Homo sapiens, UniProt P41143). Type of assay: cell membranes, HEK293, Membrane. Further: in other assays of this panel Not Active means under 50% inhibition at 10 µM.
The target in assay [6] is Epidermal growth factor receptor (Homo sapiens, UniProt P00533). In words: DRUGMATRIX: Protein Tyrosine Kinase, EGF Receptor enzyme inhibition (substrate: Poly(Glu:Tyr)). The assay is classed as cell-based, Insect cells. To be noted: Not Active = under 50% inhibition at 10 µM.
Sequence of Epidermal growth factor receptor (P00533 whole entry): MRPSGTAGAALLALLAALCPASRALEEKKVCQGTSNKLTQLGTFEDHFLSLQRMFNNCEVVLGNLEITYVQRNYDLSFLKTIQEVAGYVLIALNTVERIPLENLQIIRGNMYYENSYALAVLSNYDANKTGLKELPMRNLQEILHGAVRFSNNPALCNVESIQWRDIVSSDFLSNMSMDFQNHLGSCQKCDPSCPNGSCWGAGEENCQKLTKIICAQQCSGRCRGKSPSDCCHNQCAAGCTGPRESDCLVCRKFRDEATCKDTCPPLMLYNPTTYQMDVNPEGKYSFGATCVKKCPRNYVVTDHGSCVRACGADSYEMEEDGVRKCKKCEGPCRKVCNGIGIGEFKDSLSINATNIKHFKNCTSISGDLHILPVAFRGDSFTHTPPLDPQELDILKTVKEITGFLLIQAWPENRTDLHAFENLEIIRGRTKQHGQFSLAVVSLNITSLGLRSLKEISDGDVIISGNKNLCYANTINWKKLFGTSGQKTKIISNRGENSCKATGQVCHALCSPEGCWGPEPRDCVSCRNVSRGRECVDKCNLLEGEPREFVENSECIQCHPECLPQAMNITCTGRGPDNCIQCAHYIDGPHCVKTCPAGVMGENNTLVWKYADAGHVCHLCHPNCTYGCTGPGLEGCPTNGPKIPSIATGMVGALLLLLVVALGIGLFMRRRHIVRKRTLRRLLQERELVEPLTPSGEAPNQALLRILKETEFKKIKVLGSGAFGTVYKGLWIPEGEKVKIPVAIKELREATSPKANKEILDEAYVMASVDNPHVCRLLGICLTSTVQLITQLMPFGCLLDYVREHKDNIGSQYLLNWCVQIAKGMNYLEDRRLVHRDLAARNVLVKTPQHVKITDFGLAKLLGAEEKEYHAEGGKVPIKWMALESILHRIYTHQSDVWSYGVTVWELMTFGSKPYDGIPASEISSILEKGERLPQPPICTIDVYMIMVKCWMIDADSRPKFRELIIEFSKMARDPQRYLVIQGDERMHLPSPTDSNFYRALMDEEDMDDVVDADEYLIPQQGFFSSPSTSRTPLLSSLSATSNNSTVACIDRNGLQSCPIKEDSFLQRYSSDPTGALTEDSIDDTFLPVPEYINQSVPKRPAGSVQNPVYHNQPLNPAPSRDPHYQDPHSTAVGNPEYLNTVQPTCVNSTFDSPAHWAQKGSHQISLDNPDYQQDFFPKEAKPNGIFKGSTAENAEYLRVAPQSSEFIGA

Sequence of Delta-type opioid receptor (P41143 whole entry): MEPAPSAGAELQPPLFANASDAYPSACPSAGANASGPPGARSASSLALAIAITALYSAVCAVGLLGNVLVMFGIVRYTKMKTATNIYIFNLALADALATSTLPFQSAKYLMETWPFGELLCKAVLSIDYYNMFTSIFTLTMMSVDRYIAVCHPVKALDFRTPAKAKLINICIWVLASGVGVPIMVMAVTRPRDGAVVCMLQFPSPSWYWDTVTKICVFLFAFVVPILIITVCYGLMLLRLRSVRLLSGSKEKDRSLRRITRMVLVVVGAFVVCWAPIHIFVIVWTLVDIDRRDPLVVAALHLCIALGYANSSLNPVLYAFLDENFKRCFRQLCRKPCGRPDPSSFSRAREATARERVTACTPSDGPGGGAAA
Sequence of Nitric oxide synthase 1 (P29476 whole entry): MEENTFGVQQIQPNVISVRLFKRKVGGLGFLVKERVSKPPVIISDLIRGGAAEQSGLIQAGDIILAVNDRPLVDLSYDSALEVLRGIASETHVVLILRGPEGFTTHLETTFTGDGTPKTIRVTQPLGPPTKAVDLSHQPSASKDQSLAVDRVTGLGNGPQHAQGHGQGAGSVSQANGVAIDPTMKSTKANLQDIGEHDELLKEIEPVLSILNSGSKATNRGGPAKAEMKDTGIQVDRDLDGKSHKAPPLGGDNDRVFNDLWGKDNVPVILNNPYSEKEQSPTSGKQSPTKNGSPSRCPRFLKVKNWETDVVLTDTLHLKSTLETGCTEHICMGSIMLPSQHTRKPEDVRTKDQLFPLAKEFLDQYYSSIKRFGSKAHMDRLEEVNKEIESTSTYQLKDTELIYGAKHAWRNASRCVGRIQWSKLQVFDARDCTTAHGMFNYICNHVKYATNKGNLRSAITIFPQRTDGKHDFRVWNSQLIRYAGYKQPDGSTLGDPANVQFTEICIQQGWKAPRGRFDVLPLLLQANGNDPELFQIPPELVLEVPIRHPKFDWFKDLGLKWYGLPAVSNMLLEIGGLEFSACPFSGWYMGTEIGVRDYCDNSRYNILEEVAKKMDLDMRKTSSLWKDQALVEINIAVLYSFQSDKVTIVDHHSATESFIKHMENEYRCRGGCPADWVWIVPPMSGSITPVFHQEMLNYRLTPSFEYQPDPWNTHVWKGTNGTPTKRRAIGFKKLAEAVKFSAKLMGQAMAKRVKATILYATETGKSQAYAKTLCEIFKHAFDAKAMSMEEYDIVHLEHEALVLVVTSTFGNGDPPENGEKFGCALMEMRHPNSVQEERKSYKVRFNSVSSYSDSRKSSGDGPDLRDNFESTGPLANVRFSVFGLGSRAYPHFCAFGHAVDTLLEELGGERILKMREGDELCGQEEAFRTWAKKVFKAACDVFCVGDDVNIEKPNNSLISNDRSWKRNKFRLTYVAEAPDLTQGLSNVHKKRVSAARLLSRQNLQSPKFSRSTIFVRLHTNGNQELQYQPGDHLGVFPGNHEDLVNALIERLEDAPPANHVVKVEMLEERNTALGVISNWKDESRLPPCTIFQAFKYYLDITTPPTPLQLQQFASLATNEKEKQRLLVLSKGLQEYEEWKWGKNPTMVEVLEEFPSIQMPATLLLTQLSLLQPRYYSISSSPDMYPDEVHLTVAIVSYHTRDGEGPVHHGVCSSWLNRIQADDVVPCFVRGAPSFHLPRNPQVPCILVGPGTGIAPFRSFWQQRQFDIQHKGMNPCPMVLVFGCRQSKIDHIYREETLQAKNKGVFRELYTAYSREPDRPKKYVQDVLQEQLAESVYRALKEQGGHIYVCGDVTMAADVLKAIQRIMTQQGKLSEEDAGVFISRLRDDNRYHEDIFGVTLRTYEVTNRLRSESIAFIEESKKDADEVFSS

As a reminder, the IC50 is the concentration that gives 50% inhibition. As usually defined, the Ki is the dissociation constant of the complex between target and ligand, obtained from inhibition or displacement. For the compound `COc1cc(N)nc2[nH]c(-c3ccc(F)cc3)c(-c3ccncc3)c12`, the IC50 result (against Nitric oxide synthase 1; in assay [1]; in assay [2]; in assay [3]; in assay [4]; in assay [5] (hek293)) was “Not Active” throughout. The Ki entry in assay [2] and in assay [3] was “Not Active” each time.

On to `CNS(=O)(=O)Cc1ccc2[nH]cc(CCN(C)C)c2c1`, for which the concentration for half-maximal inhibition (IC50) result (against Nitric oxide synthase 1; in assay [1]; in assay [2]; in assay [3]; in assay [6] (insect cells); in assay [4]) was “Not Active” in each case. Besides, in assay [5] (hek293), the IC50 result is given as “Not Active”. Besides, the Ki entry in assay [2] and in assay [3] was “Not Active” each time.

With `CCCc1nn(C)c2c(=O)[nH]c(-c3cc(S(=O)(=O)N4CCN(C)CC4)ccc3OCC)nc12`, the IC50 entry (against Nitric oxide synthase 1; in assay [1]; in assay [2]; in assay [3]; in assay [6] (insect cells); in assay [4]) was “Not Active” in each case. The IC50 entry in assay [5] (hek293) was “Not Active”. In addition, the Ki entry in assay [2] and in assay [3] was “Not Active” throughout.

Regarding `COc1ccc(/C=C/C(=O)Nc2ccccc2C(=O)O)cc1OC`, the IC50 result (against Nitric oxide synthase 1; in assay [1]; in assay [2]; in assay [3]; in assay [6] (insect cells); in assay [4]) was “Not Active” throughout. Also, the IC50 result in assay [5] (hek293) is listed as “Not Active”. The inhibition constant (Ki) result in assay [2] and in assay [3] was “Not Active” each time.

For `CCOC(N)=O`, the IC50 entry (against Nitric oxide synthase 1; in assay [1]; in assay [2]; in assay [3]; in assay [6] (insect cells); in assay [4]) was “Not Active” throughout. The concentration for half-maximal inhibition (IC50) entry in assay [5] (hek293) is reported as “Not Active”. Moreover, the Ki entry in assay [2] and in assay [3] was “Not Active” throughout.

For `CC(=O)Nc1nnc(S(N)(=O)=O)s1` [ACETAZOLAMIDE], the IC50 entry (against Nitric oxide synthase 1; in assay [1]; in assay [6] (insect cells); in assay [4]; in assay [5] (hek293)) was “Not Active” in each case.

Take `O=c1[nH]c2ccccc2n1CCCN1CCC(n2c(=O)[nH]c3cc(Cl)ccc32)CC1` [DOMPERIDONE]: the IC50 entry (at Nitric oxide synthase 1; in assay [1]; in assay [6] (insect cells); in assay [4]; in assay [5] (hek293)) was “Not Active” in each case.

As for `CC1=C(CC(=O)O)c2cc(F)ccc2/C1=C\c1ccc(S(C)(=O)=O)cc1` [EXISULIND], the IC50 entry (against Nitric oxide synthase 1; in assay [1]; in assay [2]; in assay [3]; in assay [6] (insect cells); in assay [4]) was “Not Active” each time. The half-maximal inhibitory concentration (IC50) result in assay [5] (hek293) is “Not Active”. Moreover, the inhibitory constant (Ki) result in assay [2] and in assay [3] was “Not Active” throughout.

With `CC(C)OC(=O)C(C)(C)Oc1ccc(C(=O)c2ccc(Cl)cc2)cc1` [FENOFIBRATE], the concentration for half-maximal inhibition (IC50) entry (against Nitric oxide synthase 1; in assay [1]; in assay [6] (insect cells); in assay [4]; in assay [5] (hek293)) was “Not Active” in each case.

As to `OCCN1CCN(CCCN2c3ccccc3Sc3ccc(C(F)(F)F)cc32)CC1` [FLUPHENAZINE], the half-maximal inhibitory concentration (IC50) result against Nitric oxide synthase 1 was “Not Active”; in assay [1], “Not Active”; in assay [6] (read-out: IC50), 40.1 µM; in assay [4], “Not Active”; in assay [5] (read-out: IC50), 24 µM. In addition, in assay [5] (read-out: Ki), the inhibition constant (Ki) amounted to 8.47 µM.

As to `CN1C2CCCC1CC(NC(=O)c1nn(C)c3ccccc13)C2` (stereo not drawn) [GRANISETRON], the IC50 result (on Nitric oxide synthase 1; in assay [1]; in assay [6] (insect cells); in assay [4]; in assay [5] (hek293)) was “Not Active” in each case.

Regarding `Nc1nc2c(c(=O)[nH]1)N(C=O)C(CNc1ccc(C(=O)N[C@@H](CCC(=O)O)C(=O)O)cc1)CN2` (stereo partly drawn) [LEUCOVORIN], the IC50 result (against Nitric oxide synthase 1; in assay [1]; in assay [2]; in assay [3]; in assay [6] (insect cells); in assay [4]) was “Not Active” in each case. Also, the half-inhibitory concentration (IC50) result in assay [5] (hek293) is on record as “Not Active”. The inhibitory constant (Ki) result in assay [2] and in assay [3] was “Not Active” each time.

For the compound `C[C@@H](O)[C@H]1C(=O)N2C(C(=O)O)=C(S[C@@H]3CN[C@H](C(=O)N(C)C)C3)[C@H](C)[C@H]12` [MEROPENEM], the half-inhibitory concentration (IC50) result (against Nitric oxide synthase 1; in assay [1]; in assay [2]; in assay [3]; in assay [6] (insect cells); in assay [4]) was “Not Active” in each case. In addition, the 50% inhibitory concentration (IC50) result in assay [5] (hek293) is reported as “Not Active”. In addition, the Ki result in assay [2] and in assay [3] was “Not Active” each time.

As to `CC[C@@H](CO)NC(=O)[C@@H]1C=C2c3cccc4c3c(cn4C)C[C@H]2N(C)C1` [METHYSERGIDE], the IC50 entry (against Nitric oxide synthase 1; in assay [1]; in assay [6] (insect cells); in assay [4]; in assay [5] (hek293)) was “Not Active” in each case.

With `CCN(CC)CC#CCOC(=O)C(O)(c1ccccc1)C1CCCCC1` (stereo not drawn) [OXYBUTYNIN], the half-inhibitory concentration (IC50) entry (at Nitric oxide synthase 1; in assay [1]; in assay [6] (insect cells); in assay [4]; in assay [5] (hek293)) was “Not Active” in each case.

Regarding `O=P(O)(O)C(O)(Cc1cccnc1)P(=O)(O)O` [RISEDRONIC ACID], the IC50 entry (against Nitric oxide synthase 1; in assay [1]; in assay [2]; in assay [3]; in assay [6] (insect cells); in assay [4]) was “Not Active” throughout. Moreover, the 50% inhibitory concentration (IC50) result in assay [5] (hek293) was “Not Active”. Further, the Ki entry in assay [2] and in assay [3] was “Not Active” in each case.

Turning to `CN(CCOc1ccc(CC2SC(=O)NC2=O)cc1)c1ccccn1` (stereo not drawn) [ROSIGLITAZONE], the IC50 entry (on Nitric oxide synthase 1; in assay [1]; in assay [2]; in assay [3]; in assay [6] (insect cells); in assay [4]) was “Not Active” throughout. Besides, the half-inhibitory concentration (IC50) entry in assay [5] (hek293) is reported as “Not Active”. The Ki result in assay [2] and in assay [3] was “Not Active” in each case.

For `C=C(C)[C@H]1Cc2c(ccc3c2O[C@@H]2COc4cc(OC)c(OC)cc4[C@@H]2C3=O)O1` [ROTENONE], the IC50 entry (against Nitric oxide synthase 1; in assay [1]; in assay [2]; in assay [3]; in assay [6] (insect cells); in assay [4]) was “Not Active” each time. Moreover, in assay [5] (hek293), the IC50 result is given as “Not Active”. Further, the inhibition constant Ki entry in assay [2] and in assay [3] was “Not Active” each time.

As for `C#CCN(C)[C@H](C)Cc1ccccc1` [SELEGILINE], the IC50 result (at Nitric oxide synthase 1; in assay [1]; in assay [2]; in assay [3]; in assay [6] (insect cells); in assay [4]) was “Not Active” in each case. Besides, the 50% inhibitory concentration (IC50) entry in assay [5] (hek293) is given as “Not Active”. Also, the Ki result in assay [2] and in assay [3] was “Not Active” throughout.

As for `CO[C@H]1C[C@@H]2CC[C@@H](C)[C@@](O)(O2)C(=O)C(=O)N2CCCC[C@H]2C(=O)O[C@H]([C@H](C)C[C@@H]2CC[C@@H](O)[C@H](OC)C2)CC(=O)[C@H](C)/C=C(\C)[C@@H](O)[C@@H](OC)C(=O)[C@H](C)C[C@H](C)/C=C/C=C/C=C/1C` [SIROLIMUS], the IC50 entry (on Nitric oxide synthase 1; in assay [1]; in assay [2]; in assay [3]; in assay [6] (insect cells); in assay [4]) was “Not Active” throughout. In assay [5] (hek293), the IC50 result is “Not Active”. Also, the inhibitory constant (Ki) entry in assay [2] and in assay [3] was “Not Active” in each case.

Turning to `O=c1n(CCCN2CCN(c3cccc(Cl)c3)CC2)nc2ccccn12` [TRAZODONE], the IC50 entry (against Nitric oxide synthase 1; in assay [1]; in assay [6] (insect cells); in assay [4]; in assay [5] (hek293)) was “Not Active” each time.

As to `COc1cc(C(=O)NS(=O)(=O)c2ccccc2C)ccc1Cc1cn(C)c2ccc(NC(=O)OC3CCCC3)cc12` [ZAFIRLUKAST], the IC50 entry against Nitric oxide synthase 1 was “Not Active”; in assay [2] it was “Not Active”; in assay [3], “Not Active”; in assay [6] (read-out: IC50) it was 5.75 µM; in assay [4], “Not Active”; in assay [5] (hek293), “Not Active”. The Ki entry in assay [2] and in assay [3] was “Not Active” each time.

As for `Cc1cn([C@H]2C[C@H](N=[N+]=[N-])[C@@H](CO)O2)c(=O)[nH]c1=O` [ZIDOVUDINE], the IC50 result (against Nitric oxide synthase 1; in assay [1]; in assay [2]; in assay [3]; in assay [4]; in assay [5] (hek293)) was “Not Active” throughout. In addition, the Ki result in assay [2] and in assay [3] was “Not Active” each time.
